Marks after values point to notes of the source that are not given here.
Legend:
[1] = tested on: splenocytes; test: Splenocyte viability, trypan blue exclusion (Example III); type: in vivo, Swiss albino mice; conditions: for % Viability Day7, splenocyte viability: Day 7; for splenocyte viability compared with vehicle control: cyclophosphamide, 2 mg/kg 3-OH-DBP, 10 mg/kg 3,8-(OH)2-DBP, 12 mg/kg combined
Procedure: (§1) Male and female Swiss albino mice (n=8; 4 from each gender) weighing approximately 25±5 g, were obtained from National Research Institute of Ayurveda for Drug Development (Govt. of India), Kolkata, and were housed in polypropylene cages at 22±3° C., relative air humidity of 45 to 55%, with 12.00 h light & dark cycle (lighting on from 6:00 AM to 6:00 PM). […] The mice were acclimatized for one week in the laboratory conditions, before being used in the experiment. All experiments were conducted between 10.00 h and 14.00 h. Principles of laboratory animal care (NIH publication no. 85-23, revised 1985) was followed.
(§2) Cyclophosphamide was dissolved in distilled water and the mice were administered a single exposure (250 mg/kg, i.p.) on day 1.
(§3) 3-OH-DBP, 3,8-(OH)2-DBP, and combined 3-OH-DBP+3,8-(OH)2-DBP were administered once daily for 7 days starting from day 1. Following 7 days of treatment the mice were anaesthetized and sacrificed under anaesthesia followed by collection of peritoneal macrophages and spleen (for splenocyte isolation).
(§4) Swiss albino mice were randomly divided into 8 Groups (n=8; 4 from each gender). […] (2:10) (12 mg/kg b.w., p.o.), Group VI mice were administered 3-OH-DBP (10 mg/kg b.w., p.o.), Group VII mice were administered 3,8-(OH)2-DBP (50 mg/kg b.w., p.o.), Group VIII mice were administered [3-OH-DBP+3,8-(OH)2-DBP] (10:50) (60 mg/kg b.w., p.o.).
Spleens were collected and single cell suspension was prepared by mincing and tapping the spleen fragments on stainless steel 200-mesh in ice cold phosphate buffer saline (PBS: 0.15M NaCl; pH: 7.4). Cell suspensions were centrifuged at 2000 rpm for 10 minutes.
(§5) Results were expressed in terms of mean±SEM (n=8; 4 from each gender). Data were subjected to one way ANOVA followed by Tukey's test using GraphPad Prism 4.0 software to establish statistical significance (*p<0.05, **p<0.01, ***p<0.001, where * refers to comparison with Group I vehicle control; #p<0.05, ##p<0.01, ###p<0.001, where #refers to comparison with Group II cyclophosphamide administration; ^ap<0.05, ^aap<0.01, ^aap<0.01, where a refers to comparison of Day 7 with Day 0).

[2] = tested on: peritoneal macrophages; test: NBT reduction assay in peritoneal macrophages, cyclophosphamide-induced immunosuppression (Example II); type: in vivo, Swiss albino mice; conditions: for OD (515 nm), NBT reduction assay in peritoneal macrophages: 10 mg/kg body weight p.o. 7 days + cyclophosphamide 250 mg/kg i.p., Mean ± SD, n = 6
Procedure: (§6) The mice were acclimatized for one week in the laboratory conditions, before being used in the experiment. All experiments were conducted between 10.00 hr and 14.00 hr. Principles of laboratory animal care (NIH publication no. 85-23, revised 1985) were followed.
(§7) All test compounds (DBPs and DBP glycosides) were suspended in 0.3% of CMC (Carboxymethyl Cellulose) solutions of distilled water and were administered orally for 7 days by using an intubation canula. The volume of dose was 100 μl/10 g body weight. Cyclophosphamide was dissolved in distilled water and was injected (250 mg/kg, i.p.) on day one and volume of dose was 100 μl/10 g body weight. Control animals received equivalent volume of the vehicles CMC (0.3%) solutions only.
On day seven all the animals were sacrificed under ether anesthesia and peritoneal macrophages were lavaged using ice cold phosphate buffer saline (PBS: 0.15M NaCl pH-7.4). After centrifugation (3000 rpm×10 min) at 4° C. the pellet was re-suspended in PBS and cell viability was confirmed by trypan blue exclusion method. (Bala A, Haldar P K, Kar B, Naskar S and Mazumder U K, “Carbon tetrachloride: A hepatotoxin causes oxidative stress in murine peritoneal macrophage and peripheral blood lymphocyte cells” Immunopharmacol. and Immunotoxicol. 34(1): 157-162 (2012)).
Preparation of NBT solution: 0.2% NBT (nitroblue tetrazolium) in PB (Phosphate Buffer, pH 7.4), 5% dextrose and HBSS (Hank's balanced salt solution). The three solutions were mixed in 6:2:4 ratios. (Saxena A K, Singh K P, Srivastava S N, Shukla L J and Shanker R., “Immunomodulating effects of caffeine in rodents” Ind J Exptl Biol. 22: 298-301 (1984)).
Method: 0.5 ml of NBT solution was added to 0.5 ml of peritoneal macrophages (1×10^6 cells/ml) in a micro-centrifuge tube. This mixture was incubated at 37° C. for 45 minutes. The cell suspension was centrifuged at 1500 rpm for 10 minutes. Supernatant was discarded and pellet was re-suspended in 2 ml of DMSO. The tubes were kept in a boiling water bath for 10 minutes. The tubes were again centrifuged at 1500 rpm for 10 minutes. The supernatant was collected, and absorbance was measured at 515 nm.

[3] = tested on: peritoneal macrophages; test: Peritoneal macrophage viability, trypan blue exclusion (Example III); type: in vivo, Swiss albino mice; conditions: for peritoneal macrophage viability compared with vehicle control: cyclophosphamide, 3-OH-DBP 2 mg/kg, 3,8-(OH)2-DBP 10 mg/kg
Procedure: as §1, §2, §3, §4
(§8) All the animals were sacrificed under ether anesthesia and peritoneal macrophages were lavaged using ice cold phosphate buffer saline (PBS: 0.15 M NaCl; pH: 7.4). After centrifugation (3000 rpm×10 min) at 4° C., pellets were re-suspended in PBS and cell viability was confirmed by trypan blue exclusion assay.
as §5

[4] = tested on: splenocytes; test: Cell viability of splenocytes, trypan blue exclusion, cyclophosphamide-induced immunosuppression (Example II); type: in vivo, Swiss albino mice; conditions: 10 mg/kg body weight p.o. 7 days + cyclophosphamide 250 mg/kg i.p.; Mean ± SD, n = 6
Procedure: as §6, §7
Spleen was collected. Single cell suspension was prepared by mincing and tapping the spleen fragments on stainless steel 200-mesh in ice cold phosphate buffer saline (PBS: 0.15M NaCl pH 7.4). Cell suspension was centrifuged at 2000 rpm for 10 minutes. The pellet was re-suspended in PBS and cell viability was confirmed by trypan blue exclusion method.

[5] = mouse, in vivo
Procedure: as §1, §2, §3, §4, §5

[6] = tested on: peritoneal macrophages; test: NBT reduction of peritoneal macrophages (Example III); type: in vivo, Swiss albino mice; conditions: for NBT reduction compared with cyclophosphamide treated mice: 3,8-(OH)2-DBP 50 mg/kg, combined 12 and 60 mg/kg; for NBT reduction compared with vehicle control: cyclophosphamide, 3-OH-DBP 2 and 10 mg/kg, combined 12 mg/kg
Procedure: as §1, §2, §3, §4, §8
Preparation of NBT solution: 0.2% NBT (nitroblue tetrazolium) in PBS (pH 7.4), 5% dextrose and HBSS. These three solutions were mixed in 6:2:4 ratios.
0.5 ml of NBT solution was added to 0.5 ml of peritoneal macrophages (1×10^6 cells/ml) in micro-centrifuge tube. This mixture was incubated at 37° C. for 2 hours. The cell suspension was centrifuged at 2000 rpm for 10 minutes. Supernatants were discarded and pellets were re-suspended in 1 ml of DMSO. The tubes were kept in boiling water bath for 10 minutes and then cooled and centrifuged at 2000 rpm for 10 minutes. The supernatants were collected and absorbance was measured at 515 nm.
as §5

[7] = female mice, 3-OH-DBP 2 and 10 mg/kg, 3,8-(OH)2-DBP 10 and 50 mg/kg, combined 12 and 60 mg/kg
[8] = female mice, 10 mg/kg p.o. + cyclophosphamide 250 mg/kg i.p.
[9] = female mice, 50 mg/kg p.o. + cyclophosphamide 250 mg/kg i.p.
[10] = male mice, 3-OH-DBP 10 mg/kg, 3,8-(OH)2-DBP 50 mg/kg, combined 60 mg/kg
[11] = male mice, 10 mg/kg p.o. + cyclophosphamide 250 mg/kg i.p.
[12] = male mice, 50 mg/kg p.o. + cyclophosphamide 250 mg/kg i.p.
[13] = female mice, 3,8-(OH)2-DBP 10 and 50 mg/kg
[14] = male mice, 3,8-(OH)2-DBP 10 mg/kg
[15] = female mice, 2 mg/kg p.o. + cyclophosphamide 250 mg/kg i.p.
[16] = male mice, 2 mg/kg p.o. + cyclophosphamide 250 mg/kg i.p.

Row | Compound | splenocyte viability compared with cyclophosphamide treated mice [1, 7] | % Viability Day7, splenocyte viability [1, 8] | splenocyte viability compared with cyclophosphamide treated mice [1, 10] | % Viability Day7, splenocyte viability [1, 11] | splenocyte viability compared with vehicle control ([1]; male mice) | OD (515 nm), NBT reduction assay in peritoneal macrophages [2] | peritoneal macrophage viability compared with cyclophosphamide treated mice [3, 7] | % Viability Day 7, peritoneal macrophage viability [3, 8] | peritoneal macrophage viability compared with cyclophosphamide treated mice [3, 10] | % Viability Day 7, peritoneal macrophage viability [3, 11] | peritoneal macrophage viability compared with vehicle control ([3]; male mice) | % Cell Viability of splenocytes [4] [%] | feed intake Day 7 in comparison to Day 0 [5] | feed intake compared to vehicle control [5] | water intake compared with cyclophosphamide treated mice [5] | water intake compared with vehicle control [5] | water intake compared with vehicle control and cyclophosphamide treated mice [5] | NBT reduction compared with cyclophosphamide treated mice ([6]; female mice, 3-OH-DBP 10 mg/kg) | O.D. (515 nm) Day 7, NBT reduction of peritoneal macrophages [6, 8] | NBT reduction compared with vehicle control [6, 13] | other results
1 | O=c1oc2cc(O)ccc2c2ccc(O)cc12 [3,8-(OH)2-DBP, 3,8-dihydroxy-dibenzo-alpha-pyrone] | significantly (p<0.05, p<0.01, p<0.001) increased | 89.50 ± 2.30# % | significantly higher | 68.69 ± 2.21*** % | similarly decreased | 0.144 ± 0.010^ | significantly (p<0.05, p<0.01) increased | 65.78 ± 2.38** % | significantly (p<0.05, p<0.01) increased | 60.34 ± 1.84% | significantly (p<0.05) decreased | 54.90 ± 5.01 | significantly (p<0.05, p<0.01) decreased | significantly (p<0.05, p<0.01) decreased | significantly (p<0.001) decreased | significantly (p<0.001) decreased | significantly (p<0.05, p<0.001) decreased | significantly (p<0.05, p<0.01, p<0.001) increased | 0.159 ± 0.02*** | significantly (p<0.05, p<0.01, p<0.001) decreased | % Viability Day7, splenocyte viability [1, 9]: 90.87 ± 1.98## %; restoration of splenocyte viability ([1]; male mice, 50 mg/kg 3,8-(OH)2-DBP (Group VII), 60 mg/kg DBP combination (Group VIII)): restored; % Viability Day7, splenocyte viability [1, 12]: 90.14 ± 0.36## %; % Viability Day 7, peritoneal macrophage viability [3, 9]: 75.27 ± 0.53^# %; % Viability Day 7, peritoneal macrophage viability [3, 12]: 70.91 ± 1.24# %; body weight Day 7 in comparison to Day 0 [5]: significantly (p<0.05) decreased; O.D. (515 nm) Day 7, NBT reduction of peritoneal macrophages [6, 9]: 0.294 ± 0.008*,###; NBT reduction compared with cyclophosphamide treated mice ([6]; male mice, NBT reduction capacity increased): significantly (p<0.05, p<0.01, p<0.001) reversed; O.D (515 nm) Day 7, NBT reduction of peritoneal macrophages [6, 11]: 0.294 ± 0.04499***; O.D (515 nm) Day 7, NBT reduction of peritoneal macrophages [6, 12]: 0.476 ± 0.07172##; NBT reduction compared with vehicle control [6, 14]: significantly (p<0.01, p<0.001) decreased
2 | O=c1oc2cc(O)ccc2c2ccccc12 [3-OH-DBP, 3-hydroxy-dibenzo-alpha-pyrone] | significantly (p<0.05, p<0.01, p<0.001) increased | 90.77 ± 1.77## % | significantly higher | 80.9 ± 1.24## % | similarly decreased | 0.154 ± 0.019 | significantly (p<0.05, p<0.01) increased | 72.56 ± 2.01^# % | significantly (p<0.05, p<0.01) increased | 69.64 ± 2.77# % | significantly (p<0.05) decreased | 59.70 ± 3.59 | significantly (p<0.05, p<0.01) decreased | significantly (p<0.05, p<0.01) decreased | significantly (p<0.001) decreased | significantly (p<0.001) decreased | significantly (p<0.05, p<0.001) decreased | significantly (p<0.05, p<0.01, p<0.001) increased | 0.207 ± 0.02**,## | significantly (p<0.05, p<0.01, p<0.001) decreased | % Viability Day7, splenocyte viability [1, 15]: 88.40 ± 1.61# %; % Viability Day7, splenocyte viability [1, 16]: 69.34 ± 1.84*** %; improvement in NBT reduction capacity ([2]; 10 mg/kg body weight p.o., in comparison with cyclophosphamide treated mice): moderate (p<0.05) improvement; % Viability Day 7, peritoneal macrophage viability [3, 15]: 62.53 ± 2.14** %; % Viability Day 7, peritoneal macrophage viability [3, 16]: 59.90 ± 0.51* %; O.D. (515 nm) Day 7, NBT reduction of peritoneal macrophages [6, 15]: 0.142 ± 0.005***; O.D (515 nm) Day 7, NBT reduction of peritoneal macrophages [6, 16]: 0.257 ± 0.02338***; O.D (515 nm) Day 7, NBT reduction of peritoneal macrophages [6, 11]: 0.232 ± 0.04097***; NBT reduction compared with vehicle control [6, 14]: significantly (p<0.01, p<0.001) decreased
